Assay results as given in publication PMC9234961 (Journal of Medicinal Chemistry, 2022).
Values after ≈ are worked out from the molar mass of the structure shown. Values joined by “and” are separate entries in the source; they are usually repeats but may differ in a detail not shown here. Identical values can stand only once. Like-named read-outs stand apart in the source and are kept apart here.

Key:
[1] = Microsomal clearance assay (MLM); type: in vitro ADME; conditions: female, CD1, pH 7.4; mouse liver microsomes, 1 μM compound
Experimental: 6. Supplementary experimental: in vitro DMPK assays
6.1 Microsomal clearance assay
Microsomal clearance was determined in female CD1 mice, female Sprague–Dawley rats, and mixed gender human liver microsomes obtained from BioIVT (Peterborough, U.K.) following incubation of 1 μM compound at 37 °C in 0.5 mg/mL microsomal protein, 3 mmol/L MgCl2, 1 mmol/L NADPH, 2.5 mmol/L and 10 mmol/L phosphate buffer (pH 7.4) (all purchased from Sigma-Aldrich, Gillingham, U.K). Reactions were started by addition of the cofactors following 10 min preincubation of microsomes with test compound and were terminated at −1, 0, 5, 10, 15, and 30 min with three volumes of ice-cold methanol containing internal standard. Samples were centrifuged at 2800g for 30 min at 4 °C and the supernatants analyzed.
Control incubations were prepared as above with omission of cofactors. Compound measurements were […]
separation with a 3 min gradient of 0.1% formic acid in methanol on a Kinetex C18, 50 × 2.1 mm 2.6 μm UPLC column (Phenomenex, Macclesfield, UK). […]

NMR solubility assay = type: physicochemical; conditions: kinetic solubility by NMR in HEPES buffer at pH 8, 4% DMSO; read-out: Aq. Sol.
Experimental: 4. Supplementary experimental: physicochemical assays
0.5 mM TCEP, 10% D2O) was pipetted into the same well and mixed by up-down pipetting 3 times to create […]
It was then separated by centrifugation (1000 rpm
The plate was then sealed and incubated at room temperature for 20 hours, […]
165 µL of the supernatant was transferred to a 3 mm NMR tube (Bruker, Part No. Z112272) using liquid handler SamplePro Tube SJ S (Bruker). The concentration of the solubilized compound in solubility sample is measured by quantitative 1H-NMR using a single external standard (200 µM caffeine (Sigma, C1778) in PBS (pH 7.4) with 1% DMSO-d6).
The detail of the NMR method is as following: NMR data was collected on a Bruker Avance Neo 600 spectrometer equipped with a 5 mm TCI-CryoProbe. The 1H spectrum was referenced to the internal deuterated solvent. The operating frequency for 1H was 600 MHz. All NMR data were acquired at the […]
1H-NMR spectrum was acquired using a Bruker standard 1D lc1pngppsf2 pulse sequence with 32 scans.
The sweep width was 6.2 ppm with O1P set to 8.8 ppm, and the FID contained 16k time-domain data points. Relaxation delay was set to 20 sec. Water signal was suppressed. […]

[2] = molecular target: endogenous BCL6 in OCI-Ly1 cells (Homo sapiens, UniProt P41182); assay: cell-based; conditions: for MSD degrader assay [OCI-Ly1] Dmax: mean maximal degradation of BCL6; for degradation of BCL6 (in words): OCI-Ly1 MSD assay; for MSD degrader assay [OCI-LY1] pDC50 mean: mean of replicates
human BCL6 BTB domain [3] = molecular target: T1, human BCL6 BTB domain (Homo sapiens, UniProt P41182); conditions: for BCL6 TR-FRET pIC50 mean: mean of replicates
Experimental: (§1) Assays were performed in a 384-well black Proxiplate (Perkin Elmer) containing 1 nM Trx-6xHis-BCL6 (in
(§2) anti-6xHis-Terbium cryptate (CisBio Bioassays, France), in assay buffer (25 mM Hepes pH8, 100 mM NaCl,
(§3) 0.05% Tween20, 0.5 mM TCEP, 0.05% bovine serum albumin). Test compounds in DMSO or DMSO alone
(§4) were added to the wells using an ECHO550 acoustic dispenser (Labcyte Inc) to give the appropriate test
(§5) concentration in 0.7% v/v DMSO final. After 2 hours incubation at room temperature the plate was read
(§6) The % inhibition at each concentration was calculated by normalising FRET ratio to the
(§7) appropriate high (DMSO with all reagents) and low (DMSO without BCL6) controls. IC50 values were
(§8) determined using GraphPad Prism 6.0 or Dotmatics (Bishops Stortford, UK) software by fitting the
(§9) normalised data to a sigmoidal four-parameter logistic fit equation.

human BCL6 BTB domain [4] = molecular target: T1, human BCL6 BTB domain; assay: biochemical
Experimental: as §1, §2, §3, §4, §5, §6, §7, §8, §9

[5] = logD7.4 assay (Chrom log D method); type: physicochemical; conditions: pH 7.4, read-out: Measured logD7.4
Experimental: Calibration, validation and in-house compounds were prepared at 1mM in 10% DMSO / 90% Trizma solution (100mM Trizma in 75/25 methanol/water). 3 µL standard injections (with needle wash) of all calibration, validation and in-house samples were made onto a Phenomenex Luna C8 column (3µm, 100 x 4.6 mm, 100A, Phenomenex, Torrence, USA). Chromatographic separation at 30°C was carried out using […]
2 mL/min. The gradient was held at 0:100 water:organic for 0.8 minutes, then returned to the starting conditions of 95:5 water:organic for 0.2 minutes. The column was re-equilibrated for 5 minutes at the […]

[6] = OCI-Ly1, read-out: MSD degrader assay [OCI-LY1] Dmax individual replicates, single replicate values
[7] = OCI-Ly1, read-out: MSD degrader assay [OCI-Ly1] Dmax, mean maximal degradation of BCL6, OCI-Ly1 cells, 2 h
[8] = read-out: MSD degrader assay [OCI-LY1] DC50 individual replicates, single replicate values
[9] = read-out: MSD degrader assay [OCI-Ly1] DC50, geometric mean, OCI-Ly1 cells, 2 h incubation
[10] = read-out: BCL6 TR-FRET IC50, geometric mean, BCOR-AF633 peptide, 2 h incubation
[11] = read-out: BCL6 TR-FRET IC50 individual replicates, single replicate values
[12] = BCL6 TR-FRET IC50 individual replicates, single replicate values
[13] = BCL6 TR-FRET pIC50 mean, mean of replicates
[14] = reversed-phase HPLC on Phenomenex Luna C8 column

Compound	microsomal CLint at 0.5 h, 1 µM [1]	solubility kinetic at 20 h (NMR solubility assay)	Dmax [2, 6]	Dmax [2, 7]	MSD degrader assay [OCI-Ly1] Dmax ([2]; OCI-Ly1 cells, 2 h)	DC50 [2, 8]	DC50 [2, 9]	IC50 (human BCL6 BTB domain [3]; [10])	IC50 (human BCL6 BTB domain [3]; [11])	IC50 (human BCL6 BTB domain [4]; [12])	IC50 (human BCL6 BTB domain [4]; [13])	chromatographic logD [5]	degradation of BCL6 (in words) [2]	IC50 (human BCL6 BTB domain [4]; BCL6 TR-FRET IC50, geometric mean, BCOR-AF633 peptide, 2 h incubation)	BCL6 TR-FRET pIC50 mean (human BCL6 BTB domain [3])	chromatographic logD [5, 14]	MSD degrader assay [OCI-LY1] pDC50 mean [2]	MSD degrader assay [OCI-LY1] Dmax individual replicates ([2]; single replicate values)
Cn1c(=O)c2c(c3cc(Nc4nc(N5CCC[C@@H](O)C5)ncc4Cl)ccc31)N[C@@H](C1CC1)C(F)(F)CO2 [14a, (S)-10-((5-chloro-2-((R)-3-hydroxypiperidin-1-yl)pyrimidin-4-yl)amino)-2-cyclopropyl-3,3-difluoro-7-methyl-1,2,3,4-tetrahydro-[1,4]oxazepino[2,3-c]quinolin-6(7H)-one]	88 µL/min/mg	25 µM (≈ 13.3 µg/mL)	34.9%	34.9%	35%	> 2000 nM	> 2000 nM	3 nM	3.1 nM	1.7 nM and 2.4 nM	2.46 nM	2.7						
Cn1c(=O)c2c(c3cc(Nc4nc(N5CCC[C@H](O)C5)ncc4Cl)ccc31)N[C@@H](C1CC1)C(F)(F)CO2 [14b, (S)-10-((5-chloro-2-((S)-3-hydroxypiperidin-1-yl)pyrimidin-4-yl)amino)-2-cyclopropyl-3,3-difluoro-7-methyl-1,2,3,4-tetrahydro-[1,4]oxazepino[2,3-c]quinolin-6(7H)-one]	139 µL/min/mg	23 µM (≈ 12.3 µg/mL)	< 30%	< 30%	> 30%	> 2000 nM	> 2000 nM	2.5 nM	2.6 nM	3.1 nM (2×) and 3.2 nM and 2.9 nM	2.98 nM		none was seen	3 nM				
C[C@H]1C[C@H](O)CN(c2ncc(Cl)c(Nc3ccc4c(c3)c3c(c(=O)n4C)OCC(F)(F)[C@H](C4CC4)N3)n2)C1 [13b, (S)-10-((5-Chloro-2-((3S,5S)-3-hydroxy-5-methylpiperidin-1-yl)pyrimidin-4-yl)amino)-2-cyclopropyl-3,3-difluoro-7-methyl-1,2,3,4-tetrahydro-[1,4]oxazepino[2,3-c]quinolin-6(7H)-one]	446 µL/min/mg		< 30%	< 30%	> 30%	> 2000 nM	> 2000 nM	6 nM		4.9 nM and 6.4 nM and 6.8 nM			nondegraders of BCL6		8.2236	3.1		
Cn1c(=O)c2c(c3cc(Nc4nc(N5CCC(F)(F)[C@H](O)C5)ncc4Cl)ccc31)N[C@@H](C1CC1)C(F)(F)CO2 (single isomer, unassigned) [8b]	22 µL/min/mg	13 µM (≈ 7.4 µg/mL)	< 30%	< 30%	> 30%	> 2000 nM	> 2000 nM	4.6 nM	4.8 nM and 4.7 nM and 4.4 nM				nondegrading isomer		8.3342	3		
Cn1c(=O)c2c(c3cc(Nc4nc(N5CCC(F)(F)[C@@H](O)C5)ncc4Cl)ccc31)N[C@@H](C1CC1)C(F)(F)CO2 (single isomer, unassigned) [8a]	53 µL/min/mg	11 µM (≈ 6.26 µg/mL)	60.5%	59.6%	60%	4.3 nM and 11.6 nM and 7.1 nM	7.1 nM	3.5 nM		3.2 nM and 3.3 nM and 4 nM			potently degrading isomer		8.4571	3	8.1499	50.7% and 67.5%
CC(=O)N[C@@H]1C[C@H](C)CN(c2ncc(Cl)c(Nc3ccc4c(c3)c3c(c(=O)n4C)OCC(F)(F)[C@H](C4CC4)N3)n2)C1 [10a, N-((3R,5S)-1-(5-Chloro-4-(((S)-2-cyclopropyl-3,3-difluoro-7-methyl-6-oxo-1,2,3,4,6,7-hexahydro-[1,4]oxazepino[2,3-c]quinolin-10-yl)amino)pyrimidin-2-yl)-5-methylpiperidin-3-yl)acetamide]	138 µL/min/mg	15 µM (≈ 8.82 µg/mL)	72.4%		67%	1.7 nM and 2.8 nM	2.2 nM	3.6 nM		3.4 nM and 4.4 nM and 3.2 nM			potently degrading isomer		8.4394	2.8	8.6565	61.63%
C[C@@H]1C[C@@H](O)CN(c2ncc(Cl)c(Nc3ccc4c(c3)c3c(c(=O)n4C)OCC(F)(F)[C@H](C4CC4)N3)n2)C1 [13a, (S)-10-((5-Chloro-2-((3R,5R)-3-hydroxy-5-methylpiperidin-1-yl)pyrimidin-4-yl)amino)-2-cyclopropyl-3,3-difluoro-7-methyl-1,2,3,4-tetrahydro-[1,4]oxazepino[2,3-c]quinolin-6(7H)-one]	78 µL/min/mg		< 30%	< 30%	> 30%	> 2000 nM	> 2000 nM	9.9 nM	9.9 nM	11.4 nM and 8.6 nM			nondegraders of BCL6		8.0053	3		
Cn1c(=O)n(CCC(C)(C)O)c2cc(Nc3nc(N4CCC(F)(F)C(O)C4)ncc3Cl)ccc21 (stereo not drawn) [compound 3, 5-((5-Chloro-2-(4,4-difluoro-3-hydroxypiperidin-1-yl)pyrimidin-4-yl)amino)-3-(3-hydroxy-3-methylbutyl)-1-methyl-1,3-dihydro-2H-benzo[d]imidazol-2-one]	35 µL/min/mg	11 µM (≈ 5.47 µg/mL)	81%	77.5%	78%	246 nM and 310 nM	276 nM	238 nM	227 nM and 247 nM and 239 nM						6.6241	2.3	6.5593	74.1%
Cn1c(=O)n(CCC(C)(C)O)c2cc(Nc3nc(N4CCC(F)(F)C(CO)C4)ncc3Cl)ccc21 (stereo not drawn) [compound 4, 5-((5-Chloro-2-(4,4-difluoro-3-(hydroxymethyl)piperidin-1-yl)pyrimidin-4-yl)amino)-3-(3-hydroxy-3-methylbutyl)-1-methyl-1,3-dihydro-2H-benzo[d]imidazol-2-one]		294 µM (≈ 150 µg/mL)														2.5		
